Data published in US20150141478A1, “SERIES OF DRUGS USING PHOTOFRIN TO CATALYZE DECOMPOSITION OF HYDROGEN PEROXIDE” (Wuxi Zhaozhen Radiation Technology Co., Ltd., priority 2012, published 2015).

What was measured:
[1] = test system: plaques in thoracic aorta; details: 5-ALA 80 mg/kg i.p., then i.v. substrate (carbamide peroxide), 5Gy once, 7th day after therapy
Method: (1) Male New Zealand rabbits, bodyweight 3-4 kg, were fed with diet containing 1% cholesterol and pork fat, raised for 11 weeks, until atherosclerotic plaques occurred at vessels of eye ground at both sides and artery.
(2) The rabbits were anesthetized with ketamine and thiopental sodium.
(3) Target regions of plaques at artery to be treated were determined by total body CT plain scanning and CTA enhancing.
(4) Target regions of plaques at artery to be treated were sketched by a therapy planning system, to formulate a therapeutical plan suitable for RCDT, using GTV dose of up to 5.0Gy, irradiated once. Normal feeding was restored during the procedure.
(5) It was 2 h before the irradiation that 5-ALA (80 mg/kg in saline 5 ml) was intraperitoneally injected, carbamide peroxide (injection containing H2O2, 80 mg/kg) in 5 ml of saline was slowly injected via ear vein immediately before the irradiation, and the therapeutical plan was carried out immediately after the injection of carbamide peroxide.
(6) It was 5-7 days after irradiation the CTA was reexamined, and the situations of elimination of vascular plaques were recorded.
The plaques are used as target regions, positioned, and radiotherapy plan is formulated. It is 1.5 h after intraperitoneal injection of 5-ALA (80 mg/kg of body weight) that a substrate is intravenously dripped, the vascular plaques are irradiated with 5Gy once. […]

[2] = Suppression of the decomposition of H2O2 catalysed by haematoporphyrin and .OH, using .OH scavengers; details: 1.5% H2O2, 20% DMSO, 15% ethanol, 5% mannitol
Method: (4) 15 uM Haematoporphyrin derivative (HPD) was added, or 15 uM acidified porphyrin (Protoporphyrin IX, PpIX) was added.
(5) The vacuum bottles were irradiated with 10 MeV X-ray for about 1 min, dose of 5Gy, to start the decomposition reaction of H2O2. The reaction was terminated by stopping irradiation.

[3] = Decomposition of H2O2 catalysed by photofrin alone under weak alkali, 1O2 measured by DMA fluorescence; details: 15 uM, H2O2 lower than or equal to 0.15%, 25° C., 8 h, no activation
Method: (1) 10 ml vacuum bottles were used, and the vacuum bottles were totally sealed with Kodak photographic film light protecting paper.
(2) H2O2 solutions (in DMF: H2O=1:5) with different concentrations were added to the sealed vacuum bottles.
(3) 5 uM 9,10-dimethylanthracene (DMA) was added. DMA was a kind of ^1O2 specific indicator (probe), DMA had intensive fluorescence property, after binding to ^1O2, endorperoxide without fluorescence property was formed, so that the amount of the generated ^1O2 is in inverse proportion with the content of DMA.
(4) 15 uM Haematoporphyrin derivative was added, and reacted at 25° C. for 8 h.

| Compound | inhibition of 1O2 yield [2] [%] | also measured |
| --- | --- | --- |
| NCC(=O)CCC(=O)O [5-ALA] | – | plaques in thoracic aorta by CTA visualization and MR [1]: completely disappeared |
| C[S+](C)[O-] [DMSO] | 75.1 | – |
| CCO [ethanol] | 43.0 | – |
| OC[C@@H](O)[C@@H](O)[C@H](O)[C@H](O)CO [mannitol] | 17.7 | – |
| Haematoporphyrin derivative | – | catalysis of the decomposition reaction of H2O2 to generate 1O2 [3]: cannot be catalyzed |
